Experimental data: patent publication US9242940B2, “N-substituted bis(fluoroalkyl)-1,4-benzodiazepinone compounds” (BRISTOL-MYERS SQUIBB COMPANY, priority 2012, dated 2016)

Assay: Metabolic Stability Half-Life Panel, human liver microsomes
Type: in vitro ADME
Conditions: pH 7.4, human liver microsomes, 0.5 μM compound, NADPH, 45-minute time course, read-out: HLM (t1/2, min.)
Description: Metabolic Stability Half-Life Panel

With COc1ccc(C2=N[C@H](NC(=O)[C@H](CCC(F)(F)F)[C@H](CCC(F)(F)F)C(N)=O)C(=O)N(CC3CC3)c3ccccc32)cc1 [Example 6, (2R,3S)-N-((3S)-1-(Cyclopropylmethyl)-5-(4-methoxyphenyl)-2-oxo-2,3-dihydro-1H-1,4-benzodiazepin-3-yl)-2,3-bis(3,3,3-trifluoropropyl)succinamide] as the molecule, how does the half-life at 0.5 μM read?
Its half-life at 0.5 μM is at least 1.12 h.

With NC(=O)[C@@H](CCCC(F)(F)F)[C@@H](CCC(F)(F)F)C(=O)N[C@H]1N=C(c2ccccc2)c2ccccc2N(c2ccccn2)C1=O [Example 1, (2R,3S)-N-((3S)-2-Oxo-5-phenyl-1-(2-pyridinyl)-2,3-dihydro-1H-1,4-benzodiazepin-3-yl)-3-(4,4,4-trifluorobutyl)-2-(3,3,3-trifluoropropyl)succinamide] as the molecule, how does the half-life at 0.5 μM read?
Its half-life at 0.5 μM is at least 1.12 h.

Which half-life at 0.5 μM does the source give for CC(F)(F)C[C@H](C(N)=O)[C@@H](CCC(F)(F)F)C(=O)N[C@H]1N=C(c2ccccc2)c2ccccc2N(CC2CC2)C1=O [Example 8, (2R,3S)-N-((3S)-1-(Cyclopropylmethyl)-2-oxo-5-phenyl-2,3-dihydro-1H-1,4-benzodiazepin-3-yl)-3-(2,2-difluoropropyl)-2-(3,3,3-trifluoropropyl)succinamide] here?
The half-life at 0.5 μM was at least 1.12 h.

For NC(=O)[C@@H](CCC(F)(F)F)[C@@H](CCC(F)(F)F)C(=O)N[C@H]1N=C(c2ccccc2)c2ccccc2N(c2ccc(Cl)cn2)C1=O [Example 2, (2R,3S)-N-((3S)-1-(5-Chloro-2-pyridinyl)-2-oxo-5-phenyl-2,3-dihydro-1H-1,4-benzodiazepin-3-yl)-2,3-bis(3,3,3-trifluoropropyl)succinamide], which half-life at 0.5 μM is on record?
Its half-life at 0.5 μM is at least 1.12 h.

For NC(=O)[C@@H](CCC(F)(F)F)[C@@H](CCC(F)(F)F)C(=O)N[C@H]1N=C(c2ccccc2)c2ccccc2N(c2cccnc2)C1=O [Example 5, (2R,3S)-N-((3S)-2-Oxo-5-phenyl-1-(3-pyridinyl)-2,3-dihydro-1H-1,4-benzodiazepin-3-yl)-2,3-bis(3,3,3-trifluoropropyl)succinamide], which half-life at 0.5 μM is on record?
Its half-life at 0.5 μM is at least 1.12 h.

For CC(F)(F)C[C@@H](C(=O)N[C@H]1N=C(c2ccccc2)c2ccccc2N(CC2CC2)C1=O)[C@H](CCC(F)(F)F)C(N)=O [Example 9, (2R,3S)-N-((3S)-1-(Cyclopropylmethyl)-2-oxo-5-phenyl-2,3-dihydro-1H-1,4-benzodiazepin-3-yl)-2-(2,2-difluoropropyl)-3-(3,3,3-trifluoropropyl)succinamide], which half-life at 0.5 μM is on record?
The half-life at 0.5 μM was at least 1.12 h.

Which half-life at 0.5 μM does the source give for NC(=O)[C@@H](CCC(F)(F)F)[C@@H](CCC(F)(F)F)C(=O)N[C@H]1N=C(c2ccccc2)c2cc3c(cc2N(c2ccccn2)C1=O)OCO3 [Example 3, (2R,3S)-N-((7S)-6-Oxo-9-phenyl-5-(2-pyridinyl)-6,7-dihydro-5H-[1,3]dioxolo[4,5-h][1,4]benzodiazepin-7-yl)-2,3-bis(3,3,3-trifluoropropyl)succinamide] here?
The half-life at 0.5 μM was at least 1.12 h.

For NC(=O)[C@@H](CCCC(F)(F)F)[C@@H](CCC(F)(F)F)C(=O)N[C@H]1N=C(c2ccccc2)c2ccccc2N(c2cccnc2)C1=O [Example 4, (2R,3S)-N-((3S)-2-Oxo-5-phenyl-1-(3-pyridinyl)-2,3-dihydro-1H-1,4-benzodiazepin-3-yl)-3-(4,4,4-trifluorobutyl)-2-(3,3,3-trifluoropropyl)succinamide], which half-life at 0.5 μM is on record?
The half-life at 0.5 μM was at least 1.12 h.

Which half-life at 0.5 μM does the source give for COc1ccc2c(c1)C(c1ccccc1)=N[C@H](NC(=O)[C@H](CCC(F)(F)F)[C@H](CCC(F)(F)F)C(N)=O)C(=O)N2CC(F)(F)F [Example 7, (2R,3S)-N-((3S)-7-Methoxy-2-oxo-5-phenyl-1-(2,2,2-trifluoroethyl)-2,3-dihydro-1H-1,4-benzodiazepin-3-yl)-2,3-bis(3,3,3-trifluoropropyl)succinamide] here?
Its half-life at 0.5 μM is at least 1.12 h.
